Test results published in ChEMBL document CHEMBL3046276, “Preparation and activity study of new organophosphate insecticide candidates” (J Pestic Sci, 2011).
Converted amounts (≈) assume the structure as drawn.

Assays:
[1] = Toxicity in Rattus norvegicus Sprague-Dawley (rat) assessed as mortality measured after 24 hr administered orally through force feeding method; type: organism-based; details: in vivo, po
Cnaphalocrocis medinalis = experiment: Insecticidal activity against Cnaphalocrocis medinalis fed on compound pre-treated corn leaves assessed as insect mortality measured after 3 days by leaf-dipping method; type: functional
Helicoverpa zea [2] = experiment: Insecticidal activity against Helicoverpa zea (corn earworm) fed on compound pre-treated cabbage leaves assessed as insect mortality measured after 48 hr by leaf-dipping method; type: functional
Helicoverpa zea [3] = experiment: Insecticidal activity against Helicoverpa zea (corn earworm) fed on compound pre-treated cabbage leaves assessed as insect mortality measured after 24 hr by leaf-dipping method; type: functional
Chilo suppressalis = experiment: Insecticidal activity against Chilo suppressalis (rice stem borer) fed on compound pre-treated rice leaves assessed as insect mortality measured after 3 days by leaf-dipping method; type: functional
Pieris rapae = experiment: Insecticidal activity against Pieris rapae after 24 hr by larvae-dipping method; type: functional
Apolygus lucorum = experiment: Insecticidal activity against Apolygus lucorum after 24 hr by larvae-dipping method; type: functional
Ostrinia furnacalis = experiment: Insecticidal activity against Ostrinia furnacalis (Asian corn borer) after 24 hr by larvae-dipping method; type: functional

| Structure (SMILES) | LD50 at 24 h [1] [mg/kg] | LC50 (Cnaphalocrocis medinalis) [µg/mL] | LC50 (Helicoverpa zea [2]) [µg/mL] | LC50 (Helicoverpa zea [3]) [µg/mL] | LC50 (Chilo suppressalis) [µg/mL] | LC50 (Pieris rapae) [µg/mL] | LC50 (Apolygus lucorum) [µg/mL] | LC50 (Ostrinia furnacalis) [µg/mL] |
| --- | --- | --- | --- | --- | --- | --- | --- | --- |
| CCOP(=S)(OC)Oc1nc(Cl)c(Cl)cc1Cl (racemic) | 147 | 1.06 (≈ 3.15 µM) | 46.3 (≈ 138 µM) | 94.4 (≈ 280 µM) | 0.27 (≈ 0.802 µM) |  |  |  |
| CCOP(=S)(OCC)O/N=C(\C#N)c1ccccc1 [PHOXIM] | 1200 |  |  |  |  | 0.0088 (≈ 0.0295 µM) | 0.00789 (≈ 0.0264 µM) | 0.0853 (≈ 0.286 µM) |
| CCOP(=S)(OC)O/N=C(\C#N)c1ccccc1 (racemic) | 1260 |  |  |  |  | 0.00734 (≈ 0.0258 µM) | 0.00568 (≈ 0.02 µM) | 0.0698 (≈ 0.246 µM) |
| CCOP(=S)(OCC)Oc1nc(Cl)c(Cl)cc1Cl [CHLORPYRIFOS] | 163 | 13.9 (≈ 39.6 µM) | 63.9 (≈ 182 µM) | 390 (≈ 1110 µM) | 2.61 (≈ 7.44 µM) |  |  |  |
